The structures appear in SMILES notation. Structures can show the parent of a compound that is named as a salt.

For test [1], the target named is T1, human sphingosine kinase type 1 (hSPHK1) (Homo sapiens, UniProt Q9NYA1).
T1 construct: made in house; host or cells: Sf9 insect cells (baculovirus)
The experiment in a line: Sphingosine kinase assay, recombinant human SPHK1 ([32P]S1P product, scintillation counting). The test is classed as biochemical. The note with it: read-out: activity hSPHK1 (range estimate of KI). The procedure:
(§1) Recombinant baculovirus encoding human sphingosine kinase type 1 (SPHK1) was used to infect Sf9 insect cells and after 2-5 days, cleared lysates were prepared and used without further purification. Human SPHK2, which was partially purified from baculovirus-infected Sf9 cell lysates, was purchased from a commercial source. Sphingosine kinase assays were performed using standard protocols. Product [^32P]S1P was recovered by binding to cation exchange paper and quantified by scintillation counting.

Test [2] addresses T2, human sphingosine kinase type 2 (hSPHK2) (Homo sapiens, UniProt Q9NRA0).
T2 construct: purchased; host or cells: Sf9 insect cells (baculovirus)
T2 sequence (Q9NRA0 1-654): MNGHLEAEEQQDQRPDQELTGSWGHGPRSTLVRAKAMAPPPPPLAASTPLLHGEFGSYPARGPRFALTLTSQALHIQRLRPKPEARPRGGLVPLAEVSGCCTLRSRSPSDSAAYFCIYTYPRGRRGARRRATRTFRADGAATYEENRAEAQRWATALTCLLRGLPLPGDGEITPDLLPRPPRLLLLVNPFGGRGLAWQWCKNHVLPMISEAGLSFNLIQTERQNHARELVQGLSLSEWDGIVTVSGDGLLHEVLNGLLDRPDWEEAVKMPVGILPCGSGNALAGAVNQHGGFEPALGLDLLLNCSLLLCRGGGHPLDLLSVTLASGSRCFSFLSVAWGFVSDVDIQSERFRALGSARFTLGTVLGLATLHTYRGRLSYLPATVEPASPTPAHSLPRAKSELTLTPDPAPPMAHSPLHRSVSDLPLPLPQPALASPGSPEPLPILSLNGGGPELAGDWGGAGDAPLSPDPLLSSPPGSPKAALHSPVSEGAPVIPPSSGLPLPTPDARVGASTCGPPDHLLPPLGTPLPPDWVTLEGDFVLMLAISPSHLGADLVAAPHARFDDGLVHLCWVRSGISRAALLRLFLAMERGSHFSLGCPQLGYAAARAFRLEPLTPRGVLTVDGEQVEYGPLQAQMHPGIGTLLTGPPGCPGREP
The experiment in a line: Sphingosine kinase assay, recombinant human SPHK2 ([32P]S1P product, scintillation counting). Type of test: biochemical. To be noted: read-out: activity hSPHK2 (range estimate of KI). The procedure: as §1

T1 sequence (Q9NYA1 whole entry): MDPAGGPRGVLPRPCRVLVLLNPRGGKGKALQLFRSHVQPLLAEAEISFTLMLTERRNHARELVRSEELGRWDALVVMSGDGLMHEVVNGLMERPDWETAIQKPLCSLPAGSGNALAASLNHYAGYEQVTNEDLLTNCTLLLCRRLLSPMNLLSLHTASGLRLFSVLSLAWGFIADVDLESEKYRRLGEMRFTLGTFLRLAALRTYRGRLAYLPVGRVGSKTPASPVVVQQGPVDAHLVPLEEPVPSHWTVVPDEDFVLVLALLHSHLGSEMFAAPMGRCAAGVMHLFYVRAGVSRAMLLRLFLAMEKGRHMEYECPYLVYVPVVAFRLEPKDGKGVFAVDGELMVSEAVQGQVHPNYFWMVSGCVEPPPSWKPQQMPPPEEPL

With `N=C(N)N1CCC[C@H]1c1nc(-c2ccc(CCc3ccc(C(F)(F)F)cc3)c(C(F)(F)F)c2)no1` [Compound 39A, (S)-2-(3-(3-(trifluoromethyl)-4-(4-(trifluoromethyl)phenethyl)phenyl)-1,2,4-oxadiazol-5-yl)pyrrolidine-1-carboximidamide hydrochloride], the Ki (in general, the equilibrium dissociation constant of an inhibitor or competing ligand from its target) in test [1] is above 10 µM; in test [2], below 1 µM.

Turning to `N=C(N)N1CC[C@H](O)[C@H]1c1nc(-c2ccc(CCc3ccc(C(F)(F)F)cc3)c(C(F)(F)F)c2)no1` [Compound 40A, (2S,3S)-3-hydroxy-2-(3-(3-(trifluoromethyl)-4-(4-(trifluoromethyl)phenethyl)phenyl)-1,2,4-oxadiazol-5-yl)pyrrolidine-1-carboximidamide hydrochloride], the Ki in test [1] is 1 to 10 µM; in test [2] it was below 1 µM.

With `COc1ccc(CCc2ccc(-c3noc([C@@H]4[C@@H](O)CCN4C(=N)N)n3)cc2C(F)(F)F)cc1` [Compound 41A, (2S,3S)-3-hydroxy-2-(3-(4-(4-methoxyphenethyl)-3-(trifluoromethyl)phenyl)-1,2,4-oxadiazol-5-yl)pyrrolidine-1-carboximidamide hydrochloride], the values for the Ki in test [1] and in test [2] were 1 to 10 µM and below 1 µM, respectively.

With `COc1ccc(CCc2ccc(-c3noc([C@@H]4CCCN4C(=N)N)n3)cc2C(F)(F)F)cc1` [Compound 42A, (S)-2-(3-(4-(4-methoxyphenethyl)-3-(trifluoromethyl)phenyl)-1,2,4-oxadiazol-5-yl)pyrrolidine-1-carboximidamide hydrochloride], the Ki was above 10 µM in test [1] and below 1 µM in test [2].

In the case of `N=C(N)N1CC[C@H](O)[C@H]1c1nc(-c2ccc(CCC3CCCC3)c(C(F)(F)F)c2)no1` [Compound 43A, (2S,3S)-2-(3-(4-(2-cyclopentylethyl)-3-(trifluoromethyl)phenyl)-1,2,4-oxadiazol-5-yl)-3-hydroxypyrrolidine-1-carboximidamide hydrochloride], the Ki was 1 to 10 µM in test [1] and below 1 µM in test [2].

In the case of `N=C(N)N1CCC[C@H]1c1nc(-c2ccc(CCC3CCCC3)c(C(F)(F)F)c2)no1` [Compound 44A, (S)-2-(3-(4-(2-cyclopentylethyl)-3-(trifluoromethyl)phenyl)-1,2,4-oxadiazol-5-yl)pyrrolidine-1-carboximidamide hydrochloride], the Ki in test [1] is above 10 µM; in test [2] it was 1 to 10 µM.

For `N=C(N)N1CCC[C@H]1c1nc(-c2ccc(OCCCCO)c(C(F)(F)F)c2)no1` [Compound 45A, (S)-2-(3-(4-(4-hydroxybutoxy)-3-(trifluoromethyl)phenyl)-1,2,4-oxadiazol-5-yl)pyrrolidine-1-carboximidamide hydrochloride], the Ki in test [1] is above 10 µM; in test [2], 1 to 10 µM.

Turning to `COCCCCOc1ccc(-c2noc([C@@H]3CCCN3C(=N)N)n2)cc1C(F)(F)F` [Compound 46A, (S)-2-(3-(4-(4-methoxybutoxy)-3-(trifluoromethyl)phenyl)-1,2,4-oxadiazol-5-yl)pyrrolidine-1-carboximidamide 2,2,2-trifluoroacetate], the inhibitory constant (Ki) in test [1] and in test [2] was above 10 µM in each case.

With `C=CCn1c(CCCOc2ccc(-c3noc([C@@H]4[C@@H](O)CCN4C(=N)N)n3)cc2C(F)(F)F)nc2ccccc21` [Compound 47A, ((2S,3S)-2-(3-(4-(3-(1-allyl-1H-benzo[d]imidazol-2-yl)propoxy)-3-(trifluoromethyl)phenyl)-1,2,4-oxadiazol-5-yl)-3-hydroxypyrrolidin-1-yl)(amino)methaniminium chloride], the Ki in test [1] was above 10 µM; in test [2] it was 1 to 10 µM.

Consider `CCCCCCCCOc1ccc(-c2noc([C@@H]3C[C@H](F)CN3C(=N)N)n2)cc1C(F)(F)F` [Compound 48A, (2S,4S)-4-fluoro-2-(3-(4-(octyloxy)-3-(trifluoromethyl)phenyl)-1,2,4-oxadiazol-5-yl)pyrrolidine-1-carboximidamide 2,2,2-trifluoroacetate], for which the Ki was above 10 µM in test [1] and 1 to 10 µM in test [2].

Turning to `CCCCCCCCOc1ccc(-c2noc([C@@H]3C[C@@H](F)CN3C(=N)N)n2)cc1C(F)(F)F` [Compound 49A], the Ki in test [1] was above 10 µM; in test [2], below 1 µM.

For the compound `CCc1ccc(CCc2ccc(-c3noc([C@@H]4CCCN4C(=N)N)n3)cc2C(F)(F)F)cc1` [Compound 50A, (S)-2-(3-(4-(4-ethylphenethyl)-3-(trifluoromethyl)phenyl)-1,2,4-oxadiazol-5-yl)pyrrolidine-1-carboximidamide hydrochloride], the Ki in test [1] was above 10 µM; in test [2], below 1 µM.

On to `N=C(N)N1CCC[C@H]1c1nc(-c2ccc3cc(O)ccc3c2)no1` [Compound 51A, (S)-amino(2-(3-(6-hydroxynaphthalen-2-yl)-1,2,4-oxadiazol-5-yl)pyrrolidin-1-yl)methaniminium chloride], for which the Ki in test [1] and in test [2] was above 10 µM in each case.

With `N=C(N)N1CCC[C@H]1c1nc(-c2ccc3cc(OCc4ccc(Br)cc4)ccc3c2)no1` [Compound 53A, (S)-amino(2-(3-(6-((4-bromobenzyl)oxy)naphthalen-2-yl)-1,2,4-oxadiazol-5-yl)pyrrolidin-1-yl)methaniminium chloride], the figures for the Ki in test [1] and in test [2] were above 10 µM and 1 to 10 µM, respectively.

For `N=C(N)N1CCC[C@H]1c1nc(-c2ccc3cc(OCCc4ccc(C(F)(F)F)cc4)ccc3c2)no1` [Compound 54A, (S)-amino(2-(3-(6-(4-(trifluoromethyl)phenethoxy)naphthalen-2-yl)-1,2,4-oxadiazol-5-yl)pyrrolidin-1-yl)methaniminium chloride], the Ki in test [1] and in test [2] was above 10 µM in each case.

For `N=C(N)N1CCC[C@H]1c1nc(-c2ccc3cc(OCCc4ccccc4C(F)(F)F)ccc3c2)no1` [Compound 55A, (S)-amino(2-(3-(6-(2-(trifluoromethyl)phenethoxy)naphthalen-2-yl)-1,2,4-oxadiazol-5-yl)pyrrolidin-1-yl)methaniminium chloride], the Ki in test [1] and in test [2] was above 10 µM each time.

For the compound `COCCCOc1ccc2cc(-c3noc([C@@H]4CCCN4C(=N)N)n3)ccc2c1` [Compound 57A, (S)-amino(2-(3-(6-(3-methoxypropoxy)naphthalen-2-yl)-1,2,4-oxadiazol-5-yl)pyrrolidin-1-yl)methaniminium chloride], the Ki in test [1] and in test [2] was above 10 µM throughout.

Turning to `N=C(N)N1CCC[C@H]1c1nc(-c2ccc3cc(OCc4cccc(Br)c4)ccc3c2)no1` [Compound 58A, (S)-amino(2-(3-(6-((3-bromobenzyl)oxy)naphthalen-2-yl)-1,2,4-oxadiazol-5-yl)pyrrolidin-1-yl)methaniminium chloride], the Ki in test [1] and in test [2] was above 10 µM in each case.

`N=C(N)N1C[C@H](O)C[C@H]1c1nc(-c2ccc(OCCCc3ccc4c(c3)OCCO4)c(C(F)(F)F)c2)no1` [Compound 59A]: the Ki in test [1] and in test [2] was above 10 µM throughout.

On to `N=C(N)N1CCC[C@H]1c1nc(-c2ccc3cc(OCCc4cccc(C(F)(F)F)c4)ccc3c2)no1` [Compound 60A, (S)-amino(2-(3-(6-(3-(trifluoromethyl)phenethoxy)naphthalen-2-yl)-1,2,4-oxadiazol-5-yl)pyrrolidin-1-yl)methaniminium chloride], for which the Ki in test [1] and in test [2] was above 10 µM in each case.

On to `CC(C)(C)c1ccc(CCc2ccc(-c3noc([C@@H]4CCCN4C(=N)N)n3)cc2C(F)(F)F)cc1` [Compound 61A], for which the Ki is above 10 µM in test [1] and below 1 µM in test [2].

`Cc1ccc(COc2ccc3cc(-c4noc([C@@H]5CCCN5C(=N)N)n4)ccc3c2)cc1` [Compound 64A, (S)-amino(2-(3-(6-((4-methylbenzyl)oxy)naphthalen-2-yl)-1,2,4-oxadiazol-5-yl)pyrrolidin-1-yl)methaniminium chloride]: the Ki in test [1] and in test [2] was above 10 µM each time.

On to `COCCCCOc1ccc2cc(-c3noc([C@@H]4CCCN4C(=N)N)n3)ccc2c1` [Compound 65A, (S)-amino(2-(3-(6-(4-methoxybutoxy)naphthalen-2-yl)-1,2,4-oxadiazol-5-yl)pyrrolidin-1-yl)methaniminium chloride], for which the Ki in test [1] and in test [2] was above 10 µM throughout.

As for `N=C(N)N1CCC[C@H]1c1nc(-c2ccc3cc(OCC4CCCC4)ccc3c2)no1` [Compound 66A, (S)-amino(2-(3-(6-(cyclopentylmethoxy)naphthalen-2-yl)-1,2,4-oxadiazol-5-yl)pyrrolidin-1-yl)methaniminium chloride], the Ki in test [1] and in test [2] was above 10 µM each time.

(Values after patent US10100022B2, “Sphingosine kinase inhibitors” (University of Virginia Patent Foundation, priority 2014, dated 2018).)
